In patent publication US9273092B2, “Selective binding compounds” (RIOGIN Corporation, priority 2011, dated 2016):

What follows are sequences tested against hSA (Homo sapiens, UniProt P02768) (assay: hSA binding assay (hSA-coated microtiter plate, streptavidin-polyHRP/ABTS, OD 405 nm)). Conditions: not given.
Chain of hSA (P02768 25-609): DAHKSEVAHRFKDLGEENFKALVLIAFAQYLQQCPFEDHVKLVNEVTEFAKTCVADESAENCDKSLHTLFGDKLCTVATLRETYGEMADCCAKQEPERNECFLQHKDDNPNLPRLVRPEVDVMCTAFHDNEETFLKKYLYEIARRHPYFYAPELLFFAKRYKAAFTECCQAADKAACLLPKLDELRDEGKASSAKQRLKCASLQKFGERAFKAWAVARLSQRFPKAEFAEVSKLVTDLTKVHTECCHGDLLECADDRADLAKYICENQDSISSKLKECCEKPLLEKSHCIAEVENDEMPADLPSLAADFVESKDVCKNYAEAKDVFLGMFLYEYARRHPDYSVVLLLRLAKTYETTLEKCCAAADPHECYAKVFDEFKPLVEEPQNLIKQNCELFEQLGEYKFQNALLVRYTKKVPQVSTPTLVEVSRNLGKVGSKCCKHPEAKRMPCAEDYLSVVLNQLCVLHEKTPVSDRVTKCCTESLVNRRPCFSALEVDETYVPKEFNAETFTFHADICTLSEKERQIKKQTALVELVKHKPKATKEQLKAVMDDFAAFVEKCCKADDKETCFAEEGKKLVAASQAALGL
Method: hSA binding assay. Microtiter 96 well plate is coated, overnight at 4° C., using […] of a solution of hSA in PBS ([…]). Plate is washed with PBS and blocked, for 1 hours, using 150 ml, per well, of a 10% solution of Tween 20 in water. After 1 hour the wells are washed with PBS. The hSA binders tested are dissolved in PBS, 100 ml of the tested solutions are then added in the well and incubated for 2 hours. After 2 hours, the solution are discarded and the wells are washed using PBS, 0.1% Tween 20. 100 ml of a solution of streptavidin-polyHRP in PBS 1.375% casein is added to the wells and incubated for 1 more hours. Finally wells are washed with PBS, 0.1% Tween 20, and 100 ml ABTS in phosphate-citrate buffer with sodium perborate is added. After a few minutes OD are read at 405 nm.
A plurality of compounds according to the invention were prepared. All of the compounds contained the Cys-Pro-Cys moiety. These compounds and an assay control were tested using the above procedure. Some compounds were tested twice (Exp 1 and Exp 2).
In the case of “RQIEDICPCLW [Compound 2, RQIEDI-LW, "-" represents cysteine-proline-cysteine]”, the “Binding, Exp 1” value was 0.02306 and the “Binding, Exp 2” value was 0.2243. In the case of “RLIEDICPCLK [Compound 66, RLIEDI-LK, "-" represents cysteine-proline-cysteine]”, the “Binding, Exp 1” value was 6.227. For “KLIYDICPCLW [Compound 29, KLIYDI-LW, "-" represents cysteine-proline-cysteine]”, the “Binding, Exp 1” value was 0.1014 and the “Binding, Exp 2” value was 0.09262. In the case of “KLIEDICPCTW [Compound 35, KLIEDI-TW, "-" represents cysteine-proline-cysteine]”, the “Binding, Exp 1” value was 0.1327. “KLIEDICPCLH [Compound 23, KLIEDI-LH, "-" represents cysteine-proline-cysteine]” was tested, and the “Binding, Exp 1” value was 0.07161. “RIIEDICPCLW [Compound 40, RIIEDI-LW, "-" represents cysteine-proline-cysteine]” was tested, and the “Binding, Exp 1” value was 0.1632 and the “Binding, Exp 2” value was 0.1166. “RLIQICPCLW [Compound 97, RLIQI-LW, "-" represents cysteine-proline-cysteine]” was tested, and the “Binding, Exp 2” value was 0.1909. “KLIEDICPCLW [Compound 26, KLIEDI-LW, "-" represents cysteine-proline-cysteine]” was tested, and the “Binding, Exp 1” value was 0.08742. For “RLIEEICPCLW [Compound 57, RLIEEI-LW, "-" represents cysteine-proline-cysteine]”, the “Binding, Exp 1” value was 0.7026. For “KLIDDICPCLW [Compound 34, KLIDDI-LW, "-" represents cysteine-proline-cysteine]”, the “Binding, Exp 1” value was 0.1237. With “LKIKDICPCLW [Compound 94, LKIKDI-LW, "-" represents cysteine-proline-cysteine]” the “Binding, Exp 2” value was 0.2987. With “RLIEDICPCVW [Compound 52, RLIEDI-VW, "-" represents cysteine-proline-cysteine]” the “Binding, Exp 1” value was 0.3108. “KLIEDICPCLE [Compound 49, KLIEDI-LE, "-" represents cysteine-proline-cysteine]” was tested, and the “Binding, Exp 1” value was 0.2709. “KLIEDECPCLW [Compound 11, KLIEDE-LW, "-" represents cysteine-proline-cysteine]” was tested, and the “Binding, Exp 1” value was 0.04808. For “RLIVDICPCLW [Compound 12, RLIVDI-LW, "-" represents cysteine-proline-cysteine]”, the “Binding, Exp 1” value was 0.04895 and the “Binding, Exp 2” value was 0.2036.

Same assay, conditions: given only for compounds with an Exp 2 value
With “RQIEDICPCLW [Compound 2, RQIEDI-LW, "-" represents cysteine-proline-cysteine]” the Bmax was 1.232. Sequence “KLIYDICPCLW [Compound 29, KLIYDI-LW, "-" represents cysteine-proline-cysteine]” has a Bmax of 0.7912. Sequence “RIIEDICPCLW [Compound 40, RIIEDI-LW, "-" represents cysteine-proline-cysteine]” has a Bmax of 0.6826. In the case of “RLIQICPCLW [Compound 97, RLIQI-LW, "-" represents cysteine-proline-cysteine]”, the Bmax was 0.8584. “LKIKDICPCLW [Compound 94, LKIKDI-LW, "-" represents cysteine-proline-cysteine]” was tested, and the Bmax was 1.253. For “RLIVDICPCLW [Compound 12, RLIVDI-LW, "-" represents cysteine-proline-cysteine]”, the Bmax was 1.002.
